Laboratory results from patent publication US20120252729A1, “PTH-CONTAINING THERAPEUTIC/PROPHYLACTIC AGENT FOR OSTEOPOROSIS, CHARACTERIZED IN THAT PTH IS ADMINISTERED ONCE A WEEK IN A UNIT DOSE OF 100 TO 200 UNITS” (ASAHI KASEI PHARMA CORPORATION, priority 2009, published 2012).

Legend:
Type in all cases: in vivo, human
[1] = system: patients diagnosed with primary osteoporosis; test: Working Example 1: new vertebral fractures by x-ray (method of Genant et al.)
Method: Both the 5 and 100 unit groups were administered two tablets of a calcium agent (containing 500 mg of precipitated calcium carbonate [200 mg as calcium] per tablet) once a day.
The osteoporosis patients were classified as condition shown in Table 1 based on the bone fracture risk factors present, as in Non-patent Reference 13, and compared. High-risk patients were defined as having all three factors involving age, prevalent vertebral fractures, and bone density or bone atrophy; low-risk patients were defined as other than the above.

[2] = system: high-risk patients diagnosed with primary osteoporosis; test: Working Example 2: bone density of lumbar spine and femur by DXA; conditions: 200 units weekly; for Change in lumbar vertebral density (%), median: after 72 W
[3] = system: high-risk patients diagnosed with primary osteoporosis; test: Working Example 2: CT geometry of the proximal femur (neck, trochanter, shaft); conditions: 200 units weekly
Method: For the CT geometry, the proximal part of the femur was measured at the start and after 48 and 72 weeks using multislice CT scan.
The effects of the test drug on three parts of the femur (neck of the femur, trochanter, and shaft of the femur) were studied using ordinary CT scans.

[4] = high-risk patients, 5 units, after 26 W
[5] = high-risk patients, 5 units, after 52 W
[6] = high-risk patients, 5 units, after 78 W
[7] = high-risk patients, 5 units, after 104 W
[8] = high-risk patients, 5 units, after 130 W
[9] = high-risk patients, 100 units, after 26 W
[10] = high-risk patients, 100 units, after 52 W
[11] = high-risk patients, 100 units, after 78 W
[12] = high-risk patients, 100 units, after 104 W
[13] = high-risk patients, 100 units, after 130 W
[14] = low-risk patients, 5 units, after 26 W
[15] = low-risk patients, 5 units, after 52 W
[16] = low-risk patients, 5 units, after 78 W
[17] = low-risk patients, 5 units, after 104 W
[18] = low-risk patients, 5 units, after 130 W
[19] = low-risk patients, 100 units, after 26 W
[20] = low-risk patients, 100 units, after 52 W
[21] = low-risk patients, 100 units, after 78 W
[22] = low-risk patients, 100 units, after 104 W
[23] = low-risk patients, 100 units, after 130 W

teriparatide acetate
New vertebral fractures every 26 weeks: Incidence (%) [1, 4]: 9.5% | New vertebral fractures every 26 weeks: No. of fractures [1, 4]: 8 | New vertebral fractures every 26 weeks: No. with fractures [1, 4]: 6 | New vertebral fractures every 26 weeks: Incidence (%) [1, 5]: 11.1% | New vertebral fractures every 26 weeks: No. of fractures [1, 5]: 9 | New vertebral fractures every 26 weeks: No. with fractures [1, 5]: 7 | New vertebral fractures every 26 weeks: Incidence (%) [1, 6]: 7.0% | New vertebral fractures every 26 weeks: No. of fractures [1, 6]: 4 | New vertebral fractures every 26 weeks: No. with fractures [1, 6]: 4 | New vertebral fractures every 26 weeks: Incidence (%) [1, 7]: 2.9% | New vertebral fractures every 26 weeks: No. of fractures [1, 7]: 1 | New vertebral fractures every 26 weeks: No. with fractures [1, 7]: 1 | New vertebral fractures every 26 weeks: No. of fractures [1, 8]: 0 | New vertebral fractures every 26 weeks: No. with fractures [1, 8]: 0 | New vertebral fractures every 26 weeks: Incidence (%) [1, 9]: 2.0% | New vertebral fractures every 26 weeks: No. of fractures [1, 9]: 1 | New vertebral fractures every 26 weeks: No. with fractures [1, 9]: 1 | New vertebral fractures every 26 weeks: Incidence (%) [1, 10]: 2.0% | New vertebral fractures every 26 weeks: No. of fractures [1, 10]: 1 | New vertebral fractures every 26 weeks: No. with fractures [1, 10]: 1 | New vertebral fractures every 26 weeks: Incidence (%) [1, 11]: 2.2% | New vertebral fractures every 26 weeks: No. of fractures [1, 11]: 1 | New vertebral fractures every 26 weeks: No. with fractures [1, 11]: 1 | New vertebral fractures every 26 weeks: No. of fractures [1, 12]: 0 | New vertebral fractures every 26 weeks: No. with fractures [1, 12]: 0 | New vertebral fractures every 26 weeks: No. of fractures [1, 13]: 0 | New vertebral fractures every 26 weeks: No. with fractures [1, 13]: 0 | New vertebral fractures every 26 weeks: No. of fractures [1, 14]: 0 | New vertebral fractures every 26 weeks: No. with fractures [1, 14]: 0 | New vertebral fractures every 26 weeks: Incidence (%) [1, 15]: 4.8% | New vertebral fractures every 26 weeks: No. of fractures [1, 15]: 1 | New vertebral fractures every 26 weeks: No. with fractures [1, 15]: 1 | New vertebral fractures every 26 weeks: No. of fractures [1, 16]: 0 | New vertebral fractures every 26 weeks: No. with fractures [1, 16]: 0 | New vertebral fractures every 26 weeks: No. of fractures [1, 17]: 0 | New vertebral fractures every 26 weeks: No. with fractures [1, 17]: 0 | New vertebral fractures every 26 weeks: No. of fractures [1, 18]: 0 | New vertebral fractures every 26 weeks: No. with fractures [1, 18]: 0 | New vertebral fractures every 26 weeks: Incidence (%) [1, 19]: 8.3% | New vertebral fractures every 26 weeks: No. of fractures [1, 19]: 2 | New vertebral fractures every 26 weeks: No. with fractures [1, 19]: 1 | New vertebral fractures every 26 weeks: No. of fractures [1, 20]: 0 | New vertebral fractures every 26 weeks: No. with fractures [1, 20]: 0 | New vertebral fractures every 26 weeks: No. of fractures [1, 21]: 0 | New vertebral fractures every 26 weeks: No. with fractures [1, 21]: 0 | New vertebral fractures every 26 weeks: No. of fractures [1, 22]: 0 | New vertebral fractures every 26 weeks: No. with fractures [1, 22]: 0 | New vertebral fractures every 26 weeks: No. of fractures [1, 23]: 0 | New vertebral fractures every 26 weeks: No. with fractures [1, 23]: 0 | Change in lumbar vertebral density (%), median ([2]; mild impairment (≧50-<80)): 6.6% | Change in lumbar vertebral density (%), median ([2]; normal (≧80)): 8.0% | Change in lumbar vertebral density (%), mean ([2]; normal (≧80), final): 7.5% | Maximum section modulus (SM (Z min)), change from baseline after 48 weeks (%) ([3]; neck of femur): 3.43% | Maximum section modulus (SM (Z min)), change from baseline after 72 weeks (%) ([3]; neck of femur): 1.87% | Volume bone mineral density (cortical bone) [vBMD cortical], change from baseline after 48 weeks (%) ([3]; neck of femur): −0.77% | Volume bone mineral density (cortical bone) [vBMD cortical], change from baseline after 72 weeks (%) ([3]; neck of femur): −1.14% | Volume bone mineral density (total) [vBMD total], change from baseline after 48 weeks (%) ([3]; neck of femur): 0.92% | Volume bone mineral density (total) [vBMD total], change from baseline after 72 weeks (%) ([3]; neck of femur): 0.15% | Maximum section modulus (SM (Z min)), change from baseline after 48 weeks (%) ([3]; shaft of femur): 1.28% | Maximum section modulus (SM (Z min)), change from baseline after 72 weeks (%) ([3]; shaft of femur): 2.69% | Volume bone mineral density (cortical bone) [vBMD cortical], change from baseline after 48 weeks (%) ([3]; shaft of femur): 0.59% | Volume bone mineral density (cortical bone) [vBMD cortical], change from baseline after 72 weeks (%) ([3]; shaft of femur): 0.18% | Volume bone mineral density (total) [vBMD total], change from baseline after 48 weeks (%) ([3]; shaft of femur): 1.03% | Volume bone mineral density (total) [vBMD total], change from baseline after 72 weeks (%) ([3]; shaft of femur): 1.25% | Maximum section modulus (SM (Z min)), change from baseline after 48 weeks (%) ([3]; trochanter): 5.19% | Maximum section modulus (SM (Z min)), change from baseline after 72 weeks (%) ([3]; trochanter): 3.20% | Volume bone mineral density (cortical bone) [vBMD cortical], change from baseline after 48 weeks (%) ([3]; trochanter): −0.49% | Volume bone mineral density (cortical bone) [vBMD cortical], change from baseline after 72 weeks (%) ([3]; trochanter): −1.49% | Volume bone mineral density (total) [vBMD total], change from baseline after 48 weeks (%) ([3]; trochanter): 1.36% | Volume bone mineral density (total) [vBMD total], change from baseline after 72 weeks (%) ([3]; trochanter): 0.95%
